Tests used:
Type in all cases: in vivo
kochia (Kochia scoparia) = experiment: Test C greenhouse herbicide test, postemergence
In short: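 Ratings are visual scores from 0 (no effect) to 100 (complete control), made against controls 13–15 d after treatment. Postemergence sprays were applied in the greenhouse to plants 2–18 cm tall (1- to 4-leaf stage) in peat-moss/vermiculite potting medium.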

[1] = tested on: blackgrass (Alopecurus myosuroides); experiment: Test C greenhouse herbicide test, pre- and postemergence
In short: (§1)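 Visual ratings on a 0 to 100 scale (0 = no effect, 100 = complete control) versus untreated controls, scored 13–15 d after treatment. Soil-applied preemergence to seeded loam/sand; foliar postemergence to 1- to 4-leaf plants (2–18 cm) in peat-vermiculite mix; compounds formulated in solvent plus surfactant.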

corn (Zea mays) = experiment: as above
In short: as §1

[2] = tested on: wheat (winter wheat, Triticum aestivum); experiment: as above
In short: as §1

[3] = tested on: oilseed rape (Brassica napus); experiment: as above
In short: as §1

[4] = tested on: lambsquarters (Chenopodium album); experiment: as above
In short: as §1

[5] = tested on: ryegrass, Italian (Italian ryegrass, Lolium multiflorum); experiment: as above
In short: as §1

soybean (Glycine max) = experiment: as above
In short: as §1

[6] = tested on: ragweed (common ragweed, Ambrosia elatior); experiment: as above
In short: as §1

[7] = tested on: pigweed (Amaranthus retroflexus); experiment: as above
In short: as §1

[8] = tested on: johnsongrass (Sorghum halepense); experiment: as above
In short: as §1

[9] = tested on: waterhemp (common waterhemp, Amaranthus rudis); experiment: as above
In short: as §1

[10] = tested on: foxtail, giant (giant foxtail, Setaria faberii); experiment: as above
In short: as §1

[11] = tested on: nutsedge, yellow (yellow nutsedge, Cyperus esculentus); experiment: as above
In short: as §1

[12] = tested on: morningglory (Ipomoea coccinea); experiment: as above
In short: as §1

[13] = tested on: crabgrass, large (large crabgrass, Digitaria sanguinalis); experiment: as above
In short: as §1

[14] = Postemergence, 31 g ai/ha, scale 0 to 100 (0 no effect, 100 complete control)
[15] = Postemergence, 62 g ai/ha, 0 to 100 scale (0 no effect, 100 complete control)
[16] = Postemergence, 250 g ai/ha, scale 0 to 100, 0 is no effect, 100 is complete control
[17] = postemergence, 125 g ai/ha, scale 0 to 100, 0 no effect, 100 complete control
[18] = Preemergence, 31 g ai/ha, scale 0 to 100, 0 is no effect, 100 is complete control
[19] = Preemergence, 62 g ai/ha, scale 0 to 100, 0 is no effect, 100 is complete control
[20] = Preemergence, 125 g ai/ha, scale 0 to 100, 0 is no effect, 100 is complete control
[21] = Preemergence, 250 g ai/ha, scale 0 to 100 (0 no effect, 100 complete control)

CSCC(=O)Oc1c(C)nn(C)c(=O)c1-c1cccc2ccccc12 [Compound 171]
Plant response rating, Kochia (kochia (Kochia scoparia); [14]): 95 | Kochia plant response rating (kochia (Kochia scoparia); [15]): 95 | Plant response rating, Kochia (kochia (Kochia scoparia); [16]): 98 | Kochia plant response rating (kochia (Kochia scoparia); [17]): 98 | Plant response rating, Blackgrass [1, 14]: 5 | Blackgrass plant response rating [1, 15]: 30 | Plant response rating, Blackgrass [1, 16]: 55 | Plant response rating, Blackgrass [1, 18]: 30 | Plant response rating, Blackgrass [1, 19]: 40 | Plant response rating, Blackgrass [1, 20]: 45 | Blackgrass plant response rating [1, 21]: 90 | Blackgrass plant response rating [1, 17]: 40 | Plant response rating, Corn (corn (Zea mays); [14]): 0 | Corn plant response rating (corn (Zea mays); [15]): 0 | Plant response rating, Corn (corn (Zea mays); [16]): 20 | Plant response rating, Corn (corn (Zea mays); [18]): 0 | Plant response rating, Corn (corn (Zea mays); [19]): 0 | Plant response rating, Corn (corn (Zea mays); [20]): 0 | Corn plant response rating (corn (Zea mays); [21]): 40 | Corn plant response rating (corn (Zea mays); [17]): 10 | Plant response rating, Wheat [2, 14]: 0 | Wheat plant response rating [2, 15]: 15 | Plant response rating, Wheat [2, 16]: 20 | Plant response rating, Wheat [2, 18]: 0 | Plant response rating, Wheat [2, 19]: 5 | Plant response rating, Wheat [2, 20]: 45 | Wheat plant response rating [2, 17]: 30 | Plant response rating, Oilseed Rape [3, 14]: 0 | Oilseed Rape plant response rating [3, 15]: 0 | Plant response rating, Oilseed Rape [3, 16]: 30 | Plant response rating, Oilseed Rape [3, 18]: 0 | Plant response rating, Oilseed Rape [3, 19]: 5 | Plant response rating, Oilseed Rape [3, 20]: 50 | Oilseed Rape plant response rating [3, 21]: 90 | Oilseed Rape plant response rating [3, 17]: 0 | Plant response rating, Lambsquarters [4, 14]: 90 | Lambsquarters plant response rating [4, 15]: 95 | Plant response rating, Lambsquarters [4, 16]: 100 | Plant response rating, Lambsquarters [4, 18]: 98 | Plant response rating, Lambsquarters [4, 19]: 95 | Plant response rating, Lambsquarters [4, 20]: 95 | Lambsquarters plant response rating [4, 21]: 100 | Lambsquarters plant response rating [4, 17]: 98 | Plant response rating, Ryegrass, Italian [5, 14]: 90 | Ryegrass, Italian plant response rating [5, 15]: 95 | Plant response rating, Ryegrass, Italian [5, 16]: 95 | Plant response rating, Ryegrass, Italian [5, 18]: 90 | Plant response rating, Ryegrass, Italian [5, 19]: 95 | Plant response rating, Ryegrass, Italian [5, 20]: 95 | Ryegrass, Italian plant response rating [5, 17]: 95 | Plant response rating, Soybean (soybean (Glycine max); [14]): 10 | Soybean plant response rating (soybean (Glycine max); [15]): 30 | Plant response rating, Soybean (soybean (Glycine max); [16]): 50 | Plant response rating, Soybean (soybean (Glycine max); [19]): 0 | Plant response rating, Soybean (soybean (Glycine max); [20]): 55 | Soybean plant response rating (soybean (Glycine max); [17]): 60 | Plant response rating, Ragweed [6, 14]: 75 | Ragweed plant response rating [6, 15]: 100 | Plant response rating, Ragweed [6, 16]: 100 | Plant response rating, Ragweed [6, 18]: 65 | Plant response rating, Ragweed [6, 19]: 80 | Plant response rating, Ragweed [6, 20]: 95 | Ragweed plant response rating [6, 17]: 100 | Plant response rating, Pigweed [7, 14]: 60 | Pigweed plant response rating [7, 15]: 80 | Plant response rating, Pigweed [7, 16]: 100 | Plant response rating, Pigweed [7, 18]: 70 | Plant response rating, Pigweed [7, 19]: 60 | Plant response rating, Pigweed [7, 20]: 100 | Pigweed plant response rating [7, 21]: 100 | Pigweed plant response rating [7, 17]: 90 | Plant response rating, Johnsongrass [8, 14]: 5 | Johnsongrass plant response rating [8, 15]: 5 | Plant response rating, Johnsongrass [8, 16]: 20 | Plant response rating, Johnsongrass [8, 18]: 0 | Plant response rating, Johnsongrass [8, 19]: 5 | Plant response rating, Johnsongrass [8, 20]: 10 | Johnsongrass plant response rating [8, 21]: 35 | Johnsongrass plant response rating [8, 17]: 15 | Plant response rating, Waterhemp [9, 14]: 75 | Waterhemp plant response rating [9, 15]: 95 | Plant response rating, Waterhemp [9, 16]: 100 | Plant response rating, Waterhemp [9, 18]: 85 | Plant response rating, Waterhemp [9, 19]: 95 | Plant response rating, Waterhemp [9, 20]: 100 | Waterhemp plant response rating [9, 17]: 98 | Plant response rating, Foxtail, Giant [10, 14]: 10 | Foxtail, Giant plant response rating [10, 15]: 25 | Plant response rating, Foxtail, Giant [10, 16]: 75 | Foxtail, Giant plant response rating [10, 17]: 50 | Plant response rating, Nutsedge, Yellow [11, 14]: 50 | Nutsedge, Yellow plant response rating [11, 15]: 75 | Plant response rating, Nutsedge, Yellow [11, 18]: 45 | Plant response rating, Nutsedge, Yellow [11, 19]: 55 | Plant response rating, Nutsedge, Yellow [11, 20]: 70 | Nutsedge, Yellow plant response rating [11, 21]: 90 | Nutsedge, Yellow plant response rating [11, 17]: 75 | Plant response rating, Morningglory [12, 14]: 90 | Morningglory plant response rating [12, 15]: 100 | Plant response rating, Morningglory [12, 16]: 100 | Plant response rating, Morningglory [12, 18]: 85 | Plant response rating, Morningglory [12, 19]: 90 | Plant response rating, Morningglory [12, 20]: 95 | Morningglory plant response rating [12, 21]: 98 | Morningglory plant response rating [12, 17]: 100 | Plant response rating, Crabgrass, Large [13, 14]: 5 | Crabgrass, Large plant response rating [13, 15]: 20 | Plant response rating, Crabgrass, Large [13, 16]: 55 | Plant response rating, Crabgrass, Large [13, 18]: 0 | Plant response rating, Crabgrass, Large [13, 19]: 45 | Plant response rating, Crabgrass, Large [13, 20]: 60 | Crabgrass, Large plant response rating [13, 21]: 80 | Crabgrass, Large plant response rating [13, 17]: 40

Reference: US10597388B2, “Pyridazinone herbicides” (FMC CORPORATION, priority 2014, dated 2020)
